Measurements published in PubChem BioAssay (NCI).
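Following 48 hours of exposure in 96-well plates, responses at five concentrations were used to interpolate endpoints linearly. At the GI50, growth is halved. TGI denotes the concentration required for complete inhibition of growth.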

Key:
Experiment in all cases: inhibition of tumour cell growth, NCI panel, 48 h
IGROV1 ovarian = tested on: IGROV1 ovarian
M14 melanoma = tested on: M14 melanoma
OVCAR-4 ovarian = tested on: OVCAR-4 ovarian
MALME-3M melanoma = tested on: MALME-3M melanoma
CAKI-1 renal = tested on: CAKI-1 renal
HOP-62 NSCLC = tested on: HOP-62 NSCLC
MDA-MB-231 breast = tested on: MDA-MB-231 breast
A549 NSCLC = tested on: A549 NSCLC
UACC-257 melanoma = tested on: UACC-257 melanoma
CCRF-CEM leukemia = tested on: CCRF-CEM leukemia

SMILES	GI50 (IGROV1 ovarian) [µM]	TGI (IGROV1 ovarian) [µM]	GI50 (M14 melanoma) [µM]	TGI (M14 melanoma) [µM]	GI50 (OVCAR-4 ovarian) [µM]	TGI (OVCAR-4 ovarian) [µM]	GI50 (MALME-3M melanoma) [µM]	TGI (MALME-3M melanoma) [µM]	GI50 (CAKI-1 renal) [µM]	TGI (CAKI-1 renal) [µM]	GI50 (HOP-62 NSCLC) [µM]	TGI (HOP-62 NSCLC) [µM]	GI50 (MDA-MB-231 breast) [µM]	TGI (MDA-MB-231 breast) [µM]	GI50 (A549 NSCLC) [µM]	TGI (A549 NSCLC) [µM]	GI50 (UACC-257 melanoma) [µM]	TGI (UACC-257 melanoma) [µM]	TGI (CCRF-CEM leukemia) [µM]	GI50 (CCRF-CEM leukemia) [µM]
CCCCCCCCCCCCOC1C(C(COC2OC(C(O)CO)C3OC(C)(C)OC23)OC(=O)Nc2ccc([N+](=O)[O-])cc2)OC2OC(C)(C)OC21 (centres undefined)	2.34	5.73	1.81	3.44	7.09	23.5	3.16	9.64	2.55	7.28	1.95	3.8	2.6	7.2	3.36	10.7	3.53	9.35		
CCc1cccc(C(C)C)c1C1C(=O)C(=O)N(c2nc3ccccc3s2)C(=O)C1=O		> 100		> 100		> 100		> 100		> 100		> 100				> 100		> 100	> 100	
Cc1nn(C(=O)CC(=O)Nc2ccccc2Cl)c(C)c1N=Nc1ccccc1Cl		> 100		> 100		> 100		> 100		> 100		> 100				> 100		> 100	> 100	
CCCCCC1C2C(=O)NC(=O)C1C(=O)NC2=O (centres undefined)		> 100		> 100		> 100		> 100		> 100		> 100				> 100		> 100	> 100	
O=C1c2cccc3cc4ccccc4c(c23)C(=O)N1CCCNCCNCCCN1C(=O)c2cccc3cc4ccccc4c(c23)C1=O		1.72		2.21		1.58		1.8		1.52		1.72		1.66		0.373		2.25		
Nc1n[nH]c(=O)c2c1c(Br)cn2C1OC(CO)C(O)C1O (centres undefined)		> 100		30.1		26.3		54.7		> 100		98.2				> 100		> 77.9	19.2	
NCCN.O=N[O-].O=N[O-].O=N[O-].O=N[O-].[Co+3].[K+]	> 100	> 100	> 100	> 100	> 100	> 100	> 100	> 100			> 100	> 100			> 100	> 100	> 100	> 100	> 100	> 100
CC(=O)NC1C(=O)CC(c2ccccc2)N(C)C1c1ccccc1 (centres undefined)		> 100		> 100		> 100		> 100		> 100		> 100				> 100		> 100	> 100	
COc1ccc(N2CCN(CC(=O)N3CCN(c4nnc(-c5ccc(Cl)cc5)c(-c5ccc(Cl)cc5)n4)CC3)CC2)cc1	16	> 100	12.7	> 100	8.8	> 100			16.6	82.7	> 100	> 100	35.4	> 100	11.8	> 100	18.9	> 100	> 100	12.6
O=c1c2ccccc2nc(-c2ccccc2Cl)n1NC1OC(CO)C(O)C(O)C1O (centres undefined)		> 100		> 100		> 100		> 100		> 100		> 100				> 100		> 100	> 100	
CCCC1C2=C(C(=O)OC2=O)C2C(CC)CC3=C(C(=O)OC3=O)C12 (centres undefined)		> 100		> 100						> 100		> 100		> 100		> 100		> 100	> 100	
Cc1cn2cc(-c3ccncc3)nc2s1		> 100		> 100		> 100		> 100		> 100		> 100				> 100		> 100	> 78.1	
COCC(O)CN1C(N)=NC(O)C1O (centres undefined)				> 100				> 100		> 100		> 100				> 100		> 100		
CC/C(=C(\c1ccccc1)c1ccc(OCC[N+](C)(C)C)cc1)c1ccccc1		27.8		30.1		30.9		28.6		32.2		56.5				35.3		24.4	26.1	
CC(=O)/C=C\C(=O)NNS(=O)(=O)c1ccc(C)cc1		> 100		> 100		> 100		> 100		> 100		> 100				> 100		> 100	> 100	
COc1cc(/C=C/C(=O)C(C)(C)C)cc(OC)c1OC				> 100		> 100		> 100		> 100		> 100				> 100		> 100	> 100	
O=C(Cc1nc2ccccc2s1)C(=O)Nc1ccccc1C(F)(F)F		> 100		> 100		> 100		> 100		> 100		> 100				> 100		> 100	> 100	
O=C(/C=C\c1ccc(Cl)c(Cl)c1)c1ccccc1	6.82	21	7.37	21.5	8.83	21.3			6.33	19.3	17.3	35.1	12.3	25.2	11.5	26.2	12.2	24.9	8.78	2.68
Oc1ccc(-c2nc(-c3ccc4oc5ccc(-c6[nH]c(-c7ccc(O)cc7)nc6-c6ccccc6)cc5c4c3)c(-c3ccccc3)[nH]2)cc1	4.54	96.6	3.9	> 100	18	96.9	9.07	68	13.7	41.7	7.62	42.3	2.57	7.46	4.26	25.5	10.3	33.6		
